From patent US11384075B2, “Quinolinone compounds” (Janssen Pharmaceutica NV, priority 2017, dated 2022)

Tests used:
[1] = target: T1, human FGFR3 V555M enzyme (cytoplasmic domain carrying V555M mutation) (Homo sapiens, UniProt P22607, V555M); assay: FGFR3 V555M mobility shift assay (enzymatic assay); format: biochemical; details: 30 μM ATP, 45 minutes at 30° C., Caliper EZ reader II
T1 construct: human FGFR3 V555M enzyme (cytoplasmic domain carrying V555M mutation, from Carna Biosciences); purchased Carna Biosciences
T1 sequence (P22607 397-806 V555M limits assumed): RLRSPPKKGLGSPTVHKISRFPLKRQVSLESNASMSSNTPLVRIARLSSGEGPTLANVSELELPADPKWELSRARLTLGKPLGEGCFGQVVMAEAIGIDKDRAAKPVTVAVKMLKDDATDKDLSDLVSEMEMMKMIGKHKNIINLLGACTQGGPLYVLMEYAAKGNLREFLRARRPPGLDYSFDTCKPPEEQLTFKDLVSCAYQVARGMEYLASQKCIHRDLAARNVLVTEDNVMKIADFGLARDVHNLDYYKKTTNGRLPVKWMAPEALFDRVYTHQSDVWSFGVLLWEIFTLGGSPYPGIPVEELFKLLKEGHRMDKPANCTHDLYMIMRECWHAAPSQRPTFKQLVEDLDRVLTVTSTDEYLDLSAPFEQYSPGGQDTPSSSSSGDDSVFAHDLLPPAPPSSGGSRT
Summary of the method: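 Cytoplasmic-domain FGFR3 V555M (0.04 ng/μL) with 30 μM ATP and 1 μM FL-peptide 30 in HEPES pH 7.4/MgCl2/Brij35/DTT, 1% DMSO, 45 min at 30 °C, EDTA-stopped. Mobility-shift read of substrate-product conversion; 10-point 4× dilution from 10 μM fitted for IC50/pIC50.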

[2] = system: NIH/3T3 cells transfected with the same control vector; assay: NIH/3T3 mock cell proliferation assay (counter assay, general toxicity); format: cell-based; details: Mus musculus, NIH3T3, 72 h, 72-hr incubation, CellTiter Glo, starting with 30 μM; counter assay for general toxicity; read-out: NIH/3T3 MOCK CTG (IC50)
Summary of the method: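 Control-vector NIH/3T3 cells, 30,000/well in DMEM with 10% FBS, exposed 72 h at 37 °C to compound (9 points, 3-fold from 30 μM, 0.3% DMSO). CellTiter-Glo luminescence normalized to survival %; IC50, pIC50 and Hill slope from concentration-response fit.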

[3] = target: T2, NIH/3T3 cells overexpressing FGFR3 V555M-TACC3 fusion protein (Homo sapiens, UniProt P22607, V555M, cells depend on it); assay: NIH/3T3 FGFR3 V555M-TACC3 cell proliferation assay; format: cell-based; details: 72-hr incubation, CellTiter Glo, starting with 10 μM; read-out: NIH/3T3 FGFR3 V555M-TACC3 CTG (IC50)
T2 construct: NIH/3T3 FGFR3 V555M-TACC3 CTG (IC50); other: 72-hr incubation, CellTiter Glo, starting with 10 μM; fused on or other part: Q9Y6A5 (Transforming acidic coiled-coil-containing protein 3)
T2 sequence (P22607 whole entry V555M, the tested form may be a part): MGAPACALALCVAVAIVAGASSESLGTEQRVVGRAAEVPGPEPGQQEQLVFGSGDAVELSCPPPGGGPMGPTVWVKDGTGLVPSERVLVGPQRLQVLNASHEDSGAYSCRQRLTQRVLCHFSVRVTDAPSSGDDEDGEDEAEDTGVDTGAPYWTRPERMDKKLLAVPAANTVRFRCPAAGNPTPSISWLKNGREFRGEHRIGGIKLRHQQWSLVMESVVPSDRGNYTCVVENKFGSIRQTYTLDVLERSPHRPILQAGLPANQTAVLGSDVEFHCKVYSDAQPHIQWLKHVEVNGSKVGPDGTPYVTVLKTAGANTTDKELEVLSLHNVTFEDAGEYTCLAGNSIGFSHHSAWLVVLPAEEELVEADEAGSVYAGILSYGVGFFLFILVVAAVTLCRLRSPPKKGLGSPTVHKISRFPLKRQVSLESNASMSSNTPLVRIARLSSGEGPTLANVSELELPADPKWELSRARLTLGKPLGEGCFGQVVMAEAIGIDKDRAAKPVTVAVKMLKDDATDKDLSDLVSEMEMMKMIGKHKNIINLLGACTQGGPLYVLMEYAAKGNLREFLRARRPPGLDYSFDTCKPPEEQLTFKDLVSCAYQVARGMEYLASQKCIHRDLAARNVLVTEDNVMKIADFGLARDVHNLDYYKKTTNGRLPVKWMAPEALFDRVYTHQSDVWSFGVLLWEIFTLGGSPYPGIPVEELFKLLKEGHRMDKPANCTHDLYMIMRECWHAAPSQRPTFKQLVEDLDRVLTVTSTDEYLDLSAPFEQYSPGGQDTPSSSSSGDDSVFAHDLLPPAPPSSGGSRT
Summary of the method: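 NIH/3T3 cells overexpressing FGFR3 V555M-TACC3 fusion, 30,000/well in DMEM/10% FBS, treated for 72 h at 37 °C with 9 doses (4× dilutions from 10 μM top, 0.1% DMSO). CellTiter-Glo luminescence normalised to % survival; IC50, pIC50 and Hill slope from concentration-response fits.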

[4] = system: NIH/3T3 cells overexpressing FGFR3 WT-TACC3 fusion protein; assay: NIH/3T3 FGFR3 WT-TACC3 cellular phospho-ERK assay (in vitro PD assay); format: cell-based; details: Mus musculus, NIH3T3; 1-hr incubation, AlphaLISA SureFire Ultra p-ERK1/2 (Thr202/Tyr204); read-out: NIH/3T3 FGFR3 WT-TACC3 pERK (IC50)
Experimental: NIH/3T3 FGFR3 WT-TACC3 Cellular Phospho-ERK Assay (In Vitro PD Assay)
(§1) 50 μL of cell suspension (NIH/3T3 cells overexpressing FGFR3 WT-TACC3 fusion protein) (total 10,000 cells per well in growth medium (DMEM containing 1% Glutamax, 10% FBS and 1% Pen/Strep)) was seeded in a 384-well plate. After overnight incubation at 37° C. and 5% CO2, 5.5 μL of growth medium containing 10× testing compound was added into cell cultures (10 dose points with 4× serial dilution, starting with 10 μM, 0.1% DMSO final). After 1-hr incubation at 37° C. and 5% CO2, the medium was depleted and AlphaLISA SureFire Ultra p-ERK1/2 (Thr202/Tyr204) Assay Kit (from PerkinElmer) was applied for phospho-ERK level detection according to the kit instructions. The RFUs (relative fluorescence units were measured on EnVision microplate reader (ex. 680 nm, em. 615 nm) and concentration-response curve was plotted using Prism to calculate IC50 (M), pIC50 (−log IC50) and HillSlope value.

[5] = system: NIH/3T3 cells overexpressing FGFR3 V555M-TACC3 fusion protein; assay: NIH/3T3 FGFR3 V555M-TACC3 cellular phospho-ERK assay (in vitro PD assay); format: cell-based; details: Mus musculus, NIH3T3; 1-hr incubation, AlphaLISA SureFire Ultra p-ERK1/2 (Thr202/Tyr204); read-out: NIH/3T3 FGFR3 V555M-TACC3 pERK (IC50)
Experimental: NIH/3T3 FGFR3 V555M-TACC3 Cellular Phospho-ERK Assay (In Vitro PD Assay)
as §1, with “V555M-TACC3” for “WT-TACC3”

| IC50 [1] [nM] | GI50 [3] [nM] | Compound | IC50 [2] [nM] | IC50 [4] [nM] | IC50 [5] [nM] |
| --- | --- | --- | --- | --- | --- |
| 2.75 | 48.8 | C[C@@H]1CN(c2ccc3nc(-c4c(N[C@@H](C)c5ccccn5)c5ccccc5[nH]c4=O)[nH]c3c2)C[C@@H](C)O1 [Compound 21, 3-(6-((2R,6R)-2,6-dimethylmorpholino)-1H-benzo[d]imidazol-2-yl)-4-(((S)-1-(pyridin-2-yl)ethyl)amino)quinolin-2(1H)-one] | 13600 | 8.41 | 2.35 |
| 0.929 | 39.4 | C[C@H](Nc1c(-c2nc3ccc(N4CCOCC4)c(F)c3[nH]2)c(=O)[nH]c2ccccc12)c1ccccn1 [Compound 24, (S)-3-(7-fluoro-6-morpholino-1H-benzo[d]imidazol-2-yl)-4-((1-(pyridin-2-yl)ethyl)-amino)quinolin-2(1H)-one] | 13100 | 13.3 | 0.959 |
| 1.34 | 42.7 | C[C@@H]1CN(c2ccc3nc(-c4c(N[C@@H](C)c5ccccn5)c5ccccc5[nH]c4=O)[nH]c3c2)C[C@H](C)O1 [Compound 4, 3-(6-((2S,6R)-2,6-dimethylmorpholino)-1H-benzo[d]imidazol-2-yl)-4-(((S)-1-(pyridin-2-yl)ethyl)amino)quinolin-2(1H)-one] | 7690 | 3.87 | 1.09 |
| 0.213 | 4.89 | C[C@H](Nc1c(-c2nc3ccc(N4CCOCC4)cc3[nH]2)c(=O)[nH]c2ccccc12)c1ncccn1 [Compound 2, (S)-3-(6-morpholino-1H-benzo[d]imidazol-2-yl)-4-((1-(pyrimidin-2-yl)ethyl)amino)-quinolin-2(1H)-one] | 15300 | 1.24 | 0.946 |
